Experiment [1] has as its system Rotavirus. Kind of experiment: Binding affinity to […] Rotavirus CRW-8 VP8 at 3.5 mM by STD NMR spectrum.
Experiment [2] concerns Rotavirus. Briefly: Binding affinity to sialidase-insensitive Rotavirus Wa VP8 at 3.5 mM by STD NMR spectrum.
The subject of experiment [3] is MA104. Kind of experiment: Inhibition of Rotavirus Wa VP8-mediated infectivity in monkey MA104 cells at 10 mM after 1 hr by immunofluorescence assay. It is filed as cell-based.
For experiment [4], the system named is MA104. Briefly: Inhibition of Rotavirus Wa VP8-mediated binding to monkey MA104 cells at 10 mM after 1 hr by immunofluorescence assay in presence of sialidase. It is filed as cell-based.
The subject of experiment [5] is MA104. Briefly: Inhibition of Rotavirus Wa VP8-mediated binding to monkey MA104 cells at 10 mM after 1 hr by immunofluorescence assay. It is filed as cell-based.
Experiment [6] deals with MA104. Kind of experiment: Inhibition of Rotavirus Wa VP8-mediated infectivity in monkey MA104 cells at 10 mM after 1 hr by immunofluorescence assay in presence of sialidase. It is filed as cell-based.
The test system of experiment [7] is MA104. Kind of experiment: Inhibition of Rotavirus CRW-8 VP8-mediated binding to monkey MA104 cells at 10 mM after 1 hr by immunofluorescence assay. It is filed as cell-based.
Experiment [8] has as its system MA104. Kind of experiment: Inhibition of Rotavirus CRW-8 VP8-mediated infectivity in monkey MA104 cells at 10 mM after 1 hr by immunofluorescence assay. It is filed as cell-based.
Experiment [9] has as its system MA104. Kind of experiment: Inhibition of Rotavirus CRW-8 VP8-mediated binding to monkey MA104 cells at 10 mM after 1 hr by immunofluorescence assay in presence of sialidase. It is filed as cell-based.
Experiment [10] has as its system MA104. Kind of experiment: Inhibition of Rotavirus CRW-8 VP8-mediated infectivity in monkey MA104 cells at 10 mM after 1 hr by immunofluorescence assay in presence of sialidase. It is filed as cell-based.
The subject of experiment [11] is Rotavirus. Kind of experiment: Binding affinity to sialidase-insensitive Rotavirus Wa VP8 protein at 0.46 mM by STD NMR spectral analysis.
Experiment [12] deals with Rotavirus. Briefly: Binding affinity to […] Rotavirus CRW-8 VP8 at 1.2 mM by STD NMR spectrum.

Calls of active or inactive are those of the source. No cut-off for these calls is given here.

`CC(=O)N[C@H]1[C@@H](O[C@@H]2[C@H](O[C@]3(C(=O)O)C[C@H](O)[C@@H](NC(C)=O)[C@H]([C@H](O)[C@H](O)CO)O3)[C@@H](O)[C@H](O[C@H]3[C@H](O)[C@@H](O)C(O)O[C@@H]3CO)O[C@@H]2CO)O[C@H](CO)[C@H](O)[C@@H]1O[C@@H]1O[C@H](CO)[C@H](O)[C@H](O)[C@H]1O` (some centres not stated): the result with Rotavirus [1] was inactive. In addition, the result with Rotavirus [2] was Active.
What is called inhibition is the drop in the measured response relative to a control, in per cent. `CO[C@]1(C(=O)O)C[C@H](O)[C@@H](NC(C)=O)[C@H]([C@H](O)[C@H](O)CO)O1`: in the experiment on MA104 [3], the inhibition result was “inactive”. In the experiment on MA104 [4], the inhibition result was “Active”. Besides, the inhibition in the experiment with MA104 [5] came to 45%; with MA104 [6], 26%; in the experiment on MA104 [7], 35%; in the experiment on MA104 [8], 52%. Besides, the result in the experiment with MA104 [9] and in the experiment on MA104 [10] was inactive.
On to `CC(=O)N[C@H]1[C@@H](O[C@@H]2[C@H](O[C@]3(C(=O)O)C[C@H](O)[C@@H](NC(C)=O)[C@H]([C@H](O)[C@H](O)CO)O3)[C@@H](O)[C@H](O[C@H]3[C@H](O)[C@@H](O)C(O)O[C@@H]3CO)O[C@@H]2CO)O[C@H](CO)[C@H](O)[C@@H]1O[C@@H]1O[C@H](CO)[C@H](O)[C@H](O[C@]2(C(=O)O)C[C@H](O)[C@@H](NC(C)=O)[C@H]([C@H](O)[C@H](O)CO)O2)[C@H]1O` (some centres not stated), for which the outcome in the experiment on Rotavirus [11] was inactive. In the experiment with Rotavirus [12], the outcome was Active.
